Structures can show the parent of a compound that is named as a salt.
target: T1, human Kv1.5 channels (Homo sapiens, UniProt P22460); assay: Measurement of human Kv1.5 channel current by whole-cell patch clamp method (human Kv1.5-expressing CHO-K1 cell line); assay type: cell-based; details: human Kv1.5-expressing CHO-K1 cells, step end current at +40 mV, test compound 0.1, 1, 10 μM
T1 construct: Full-length human Kv1.5 cDNA was cloned from a human heart cDNA library; expressed in transfected cells; host or cells: CHO-K1
Experimental: Pharmacological Test 1 (1) Production of Human Kv1.5-Expressing CHO-K1 Cell Lines
CHO-K1 cell lines stably expressing human Kv1.5 channels were prepared in the following manner.
Full-length human Kv1.5 cDNA was cloned from a human heart cDNA library (produced by Stratagene). The obtained human Kv1.5 sequence corresponds to the sequence described in FASEB J. 5, 331-337 (1991).
The obtained human Kv1.5 cDNA was inserted into a plasmid encoding a CMV promoter and a G418 resistance marker to produce a Kv1.5 expression vector. The human Kv1.5 expression vector was transfected into CHO-K1 cells by the lipofectamine method. After culturing the cells in an F-12 medium (produced by Invitrogen Corp.) containing 10% FBS (produced by Invitrogen Corp.) for 3 or 4 days, the medium was replaced with a FBS-containing F-12 medium that included 1,000 μg/ml of G418 (produced by Invitrogen Corp.), and single colonies were isolated. The amount of Kv1.5 channel expression in the single colonies was quantified at the mRNA level by RT-PCR and then quantified at the protein level by western blotting. Finally, the expressed current was analyzed by patch clamp method. Cell lines expressing a current of 200 pA or more per cell were selected as channel-expressing cell lines for activity measurement by patch clamp method.
(3) Measurement of Ion Channel Current by Patch Clamp Method (Human Kv1.5-Expressing CHO-K1 Cell Line)
An experiment was carried out using a patch clamp setup at room temperature (20 to 26° C.). A perfusion chamber having a diameter of 20 mm (flow rate: about 5 ml/min) was mounted on the stage of a phase-contrast inverted microscope (produced by Nikon Corporation) placed on a vibration isolated table. A poly-L-lysine (produced by Sigma)-coated coverslip (diameter: 15 mm, produced by Matsunami Glass Ind., Ltd.) on which human Kv1.5-expressing cells were cultured was placed in the perfusion chamber.
Depolarizing stimulation pulses were applied and ionic current was recorded by using a patch clamp amplifier (EPC-7 or EPC-7 PLUS, produced by HEKA) and a personal computer (manufactured by IBM Corp.) in which software for data acquisition and analysis of ion channel current (PULSE 8.77, produced by HEKA) was installed. The current was measured in the whole-cell configuration of the patch-clamp technique. The tip (resistance: 2 to 4 MΩ) of a borosilicate glass pipette (produced by Sutter Instrument Co.) was gently placed on the cell membrane by using a three-dimensional mechanical micromanipulator (produced by Shoshin EM Corporation). […] Subsequently, stronger suction was applied to break the cell membrane. The capacitative current derived from the cell membrane was corrected using a patch clamp amplifier. Subsequently, the series resistance (Rs) between the pipette and the interior of the cell was measured and corrected.
The composition of the extracellular solution used is shown below. Unless otherwise specified, these components were obtained from Wako Pure Chemical Industries, Ltd.
Each test compound was prepared as a 1000-fold concentrated stock solution that was dissolved in DMSO and then diluted in the extracellular solution.
The composition of the electrode internal solution used is shown below. Unless otherwise specified, these components were obtained from Wako Pure Chemical Industries, Ltd.
(5) Measurement of Human Kv1.5 Current
While the membrane potential was bolded at −80 mV, depolarizing pulses (−80 mV for 0.05 seconds→+40 mV for 0.2 seconds →−40 mV for 0.2 seconds→−80 mV for 0.05 seconds) were applied at a stimulation frequency of 1 Hz to measure Kv1.5 channel current. More specifically, first, while perfusing an extracellular solution containing 0.1% DMSO and holding the membrane potential at −80 mV, depolarizing pulses were applied. The current obtained during the pulse application was recorded as a current in the absence of the test compounds. […]

T1 sequence (P22460 whole entry): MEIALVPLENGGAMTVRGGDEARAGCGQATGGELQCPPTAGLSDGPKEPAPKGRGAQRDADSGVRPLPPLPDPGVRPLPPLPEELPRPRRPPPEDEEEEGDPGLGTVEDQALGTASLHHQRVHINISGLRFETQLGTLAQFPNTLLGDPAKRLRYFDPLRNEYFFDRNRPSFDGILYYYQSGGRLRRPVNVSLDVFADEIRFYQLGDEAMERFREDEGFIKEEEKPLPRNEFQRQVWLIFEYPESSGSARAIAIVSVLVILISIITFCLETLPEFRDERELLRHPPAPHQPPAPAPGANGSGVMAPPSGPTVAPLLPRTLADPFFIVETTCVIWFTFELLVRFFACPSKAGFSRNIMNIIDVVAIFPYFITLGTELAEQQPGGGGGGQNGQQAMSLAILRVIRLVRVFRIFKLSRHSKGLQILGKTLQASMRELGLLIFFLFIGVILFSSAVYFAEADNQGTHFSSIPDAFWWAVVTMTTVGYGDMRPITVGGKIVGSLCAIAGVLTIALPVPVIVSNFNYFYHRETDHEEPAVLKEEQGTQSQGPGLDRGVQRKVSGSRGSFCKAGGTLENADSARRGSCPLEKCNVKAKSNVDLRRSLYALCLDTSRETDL

| IC50 | Structure (SMILES) |
| --- | --- |
| 440 nM | CCN1C(=O)C(C)(C)C(=O)N(C)c2cc(OCCCN(CCn3ccc4occc4c3=O)Cc3cccnc3C)ccc21 [Example 575, 1-ethyl-3,3,5-trimethyl-7-(3-{(2-methylpyridin-3-ylmethyl)-[2-(4-oxo-4H-furo[3,2-c]pyridin-5-yl)ethyl]-amino}propoxy)-1,5-dihydrobenzo[b][1,4]diazepine-2,4-dione] |
| 460 nM | CCN1C(=O)C(C)(C)C(=O)N(C)c2cc(OCCCN(CCn3ccc4occc4c3=O)Cc3cnccc3C)ccc21 [Example 590, 1-ethyl-3,3,5-trimethyl-7-(3-{(4-methylpyridin-3-ylmethyl)-[2-(4-oxo-4H-furo[3,2-c]pyridin-5-yl)ethyl]-amino}propoxy)-1,5-dihydrobenzo[b][1,4]diazepine-2,4-dione] |
| 500 nM | CCN1C(=O)C(C)(C)C(=O)N(C)c2cc(OCCCN(CCn3ccc4sccc4c3=O)Cc3cccnc3C)ccc21 [Example 595, 1-ethyl-3,3,5-trimethyl-7-(3-{(2-methylpyridin-3-ylmethyl)-[2-(4-oxo-4H-thieno[3,2-c]pyridin-5-yl)ethyl]-amino}propoxy)-1,5-dihydrobenzo[b][1,4]diazepine-2,4-dione] |
| 310 nM | CCCc1ncccc1CN(CCCOc1ccc2c(c1)N(C)C(=O)C(C)(C)C(=O)N2CC)CCn1ccc2oc(C)cc2c1=O [Example 611, 1-ethyl-3,3,5-trimethyl-7-{3-[[2-(2-methyl-4-oxo-4H-furo[3,2-c]pyridin-5-yl)ethyl]-(2-propylpyridin-3-ylmethyl)amino]propoxy}-1,5-dihydrobenzo[b][1,4]diazepine-2,4-dione dihydrochloride] |
| 980 nM | CCN1C(=O)C(C)(C)C(=O)N(C)c2cc(OCCCN(CCc3cccnc3)S(=O)(=O)c3ccccc3)ccc21 [Example 628, N-[3-(1-ethyl-3,3,5-trimethyl-2,4-dioxo-2,3,4,5-tetrahydro-1H-benzo[b][1,4]diazepin-7-yloxy)propyl]-N-(2-pyridin-3-ylethyl)benzenesulfonamide hydrochloride] |
| 760 nM | CCN1C(=O)C(C)(C)C(=O)N(C)c2cc(OCCCN(CCn3ccc4occc4c3=O)Cc3ccc(C)nc3C)ccc21 [Example 629, 7-(3-{(2,6-dimethylpyridin-3-ylmethyl)-[2-(4-oxo-4H-furo[3,2-c]pyridin-5-yl)ethyl]amino}propoxy)-1-ethyl-3,3,5-trimethyl-1,5-dihydrobenzo[b][1,4]diazepine-2,4-dione dihydrochloride] |
| 1100 nM | CCN1C(=O)C(C)(C)C(=O)N(C)c2cc(OCCCN(CCc3cccnc3)C(=O)c3ccccc3)ccc21 [Example 633, N-[3-(1-ethyl-3,3,5-trimethyl-2,4-dioxo-2,3,4,5-tetrahydro-1H-benzo[b][1,4]diazepin-7-yloxy)propyl]-N-(2-pyridin-3-ylethyl)benzamide hydrochloride] |
| 360 nM | CCN1C(=O)C(C)(C)C(=O)N(C)c2cc(OCCCN(CCn3ccc4ccccc4c3=O)S(=O)(=O)c3ccccc3)ccc21 [Example 634, N-[3-(1-ethyl-3,3,5-trimethyl-2,4-dioxo-2,3,4,5-tetrahydro-1H-benzo[b][1,4]diazepin-7-yloxy)propyl]-N-[2-(1-oxo-1H-isoquinolin-2-yl)ethyl]benzenesulfonamide] |
